According to patent publication EP0238198A2, “Method of modifying the lipid structure function and expression of cell membranes and pharmaceutical compositions for use therein” (Habib, Nagy Adly, priority 1986, dated 1987):
“Also recorded” adds a separate entry of the source.

Tests used:
mammary carcinoma = experiment: NMU-induced mammary carcinoma in rats, Example 1; format: in vivo, female Sprague-Dawley rats
Experimental: NMU was administered intravenously to thirty female Sprague-Dawley rats weighing approximately 200g. It has been well established that with this animal model breast cancers will develop in the majority by 12 weeks from the commencement of the giving of the carcinogen (Gullino, P.M., Pettigrew, H.M., and Grantham, E.H., I. National Cancer Inst. 1975, 54, 401-409). The rats were divided into two groups, with those of the first group (twenty rats) receiving NMU alone, and those of the second group (ten rats) receiving NMU plus stearic acid. NMU in 3% acetic acid was dissolved in distilled water (20mg/ml) and was given in three intravenous injections of 5mg/100g body weight at weeks 1, 4 and 8. […] The onset of tumours was monitored by daily inspection and by palpation of the mammary regions twice weekly. At week 22, all surviving animals were sacrificed, and autopsies were performed. The tumours located thereby were dissected and examined histologically. In the control animals who were given carcinogen alone 19 out of the 20 animals had developed breast cancers by week 16 of the experiment, with a mean latent period of 72 days. […] The range of tumour weight/rat was 5g to 47.8g with a mean value of 23.6g per rat (excluding the tumour free animal). […] These five rats had seven tumours in all, with a mean of 1.4 tumours per rat (p less than 0.001 compared to the control group). The range of tumour weight/rat was 4.2g to 21.2g, with an average of 16.4g/rat (p less than 0.01 compared to the control group). […] Of the remaining 8 live rats from this group which were killed at week 22, only three had tumours, the other five being tumour-free.

D262A Rat hepatoma = experiment: tumour cell colony inhibition test (clonogenic assay); format: cell-based; parameters: inhibition of colony formation: dose or concentration left out as unconfirmed; details: for Mean no colonies ± SE: 5 days, medium control 245.0±11.9
Experimental: Cells from rat mammary carcinoma (Sp 22), primary rat fibroblasts (from alveolar tissue) and four rat hepatoma cell lines (D23, D261, D262A and D262B) were studied.
The method used for rat cells was as follows: 200 cells were plated per dish in 1 ml 'Eagles' methionine enriched medium (MEM) + 10% newborn calf serum (NBCS) in 30 mm culture dishes and incubated for four hours at 37°C. All became firmly adherent during this initial incubation. […] Dilutions containing 20 µg/ml, […], 200 ng/ml and 2 ng/ml were prepared, 1 ml of each dilution was added to four dishes of cells, the final concentration being half the concentration of the material added. […] To control dishes 1 ml of MEM + NBCS was added, or 1 ml of MEM + NBCS + 1% ethanol. The dishes were incubated for 5 days. Medium was then removed, and the cell colonies were rinsed with 0.9% W/V NaCl solution and fixed for 15 minutes with methanol. Cell colonies were stained with 1% aqueous crystal violet and the dishes were allowed to dry.

[1] = test system: human embryonic lung fibroblasts; experiment: cell growth / cytotoxicity in the HSV2 host cell cultures (cell counting); format: cell-based; details: stearic acid 100 micromolar
D262B Rat hepatoma = experiment: tumour cell colony inhibition test (clonogenic assay); format: cell-based
[2] = NMU plus stearic acid 10mg s.c. weekly
[3] = Rattus norvegicus, 120 h, read-out: % colony formation relative to medium control

## CCCCCCCCCCCCCCCCCC(=O)O [stearic acid, octadecanoic acid]
Mammary carcinoma; NMU plus stearic acid 10mg in liquid paraffin s.c. weekly from second week, ten rats, NMU alone 19 out of 20
  animals that had developed mammary tumours by week 16: five of the original ten
Mammary carcinoma; [2]
  rats with tumours among the 8 live rats killed at week 22: three
  tumour-free rats among the 8 live rats killed at week 22: five
Mammary carcinoma; NMU plus stearic acid 10mg s.c. weekly, NMU alone 2.68, p less than 0.001
  mean tumours per rat: 1.4 tumours per rat
Mammary carcinoma; NMU plus stearic acid 10mg s.c. weekly, NMU alone 23.6g per rat, p less than 0.01
  average tumour weight: 16.4 g/rat
Mammary carcinoma; NMU plus stearic acid 10mg s.c. weekly, NMU alone 72 days
  mean latent period: 74 days
Mammary carcinoma; NMU plus stearic acid 10mg s.c. weekly, of ten rats, NMU alone all 19 with tumours died
  rats that had died by week 22: 2
D262A Rat hepatoma
  inhibition of colony formation: significant inhibition of colony formation
D262A Rat hepatoma; [3]
  activity at 0.01 µg/mL: 88%
  activity at 0.1 µg/mL: 101%
  activity at 1 µg/mL: 83.2%
  activity at 10 µg/mL: 74.7%
  activity at 50 µg/mL: 32.4%
D262A Rat hepatoma; stearic acid 10ng/ml
  Mean no colonies ± SE: 216.0± 8.8
D262A Rat hepatoma; stearic acid 100 ng/ml
  Mean no colonies ± SE: 247.8± 8.3
D262A Rat hepatoma; stearic acid 1μg/ml
  Mean no colonies ± SE: 203.8±18.1
D262A Rat hepatoma; stearic acid 10 μg/ml
  Mean no colonies ± SE: 190.3±13.6
D262A Rat hepatoma; stearic acid 50 μg/ml
  Mean no colonies ± SE: 79.3± 7.1
[1]
  inhibition of cell division / cell growth: inhibits cell division; also recorded: (+) = some inhibition of cell growth at this concentration of fatty acid supplementation
D262B Rat hepatoma; [3]
  activity at 0.01 µg/mL: 109%
D262B Rat hepatoma; stearic acid 10ng/ml, 5 days, medium control 37.0± 4.0
  Mean no colonies ± SE: 40.3± 1.8
